Laboratory results reported in patent US6207656A, “Vitamin D analogues and their neuronal effects” (Cephalon, Inc., priority 1998, dated 2001).

Experiments:
[1] = Calcemic activity in rats, serum calcium after 7 days oral gavage; format: in vivo, LEW/MOL female rats; details: for Calcium in Serum: 0.5 μg/kg/day p.o., ± S.D.
Method: For determining calcemic activity, LEW/MOL female rats (130-170 g) were administered test compounds daily for 7 days by oral gavage. Control rats received the vehicle. Each group consisted of 3 rats. Blood was collected by cardiac puncture on day 7.

[2] = cited from earlier work

In the case of C=C1/C(=C\C=C2/CCC[C@]3(C)[C@@H]([C@H](C)CCCC(C)(C)O)CC[C@@H]23)C[C@@H](O)C[C@@H]1O [1α,25(OH)2 D3, 1,25-dihydroxy vitamin D3, reference compound], the “Calcium in Serum” value ([1]; Table 2A (vehicle 2.46 ± 0.06)) is reported as 2.71 ± 0.08 mmol/L, the “Calcium in Serum” value ([1]; Table 2B (vehicle 2.57 ± 0.06)) is reported as 2.66 ± 0.10 mmol/L and the “Calcium in Serum” value ([1]; Table 2C (vehicle 2.68 ± 0.03)) is reported as 2.77 ± 0.03 mmol/L. The “Calcium in Serum” value ([1]; Table 2D (vehicle 2.51 ± 0.09)) was 2.71 ± 0.03 mmol/L, the “Calcium in Serum” value ([1]; Table 2E (vehicle 2.51 ± 0.09)) was 2.71 ± 0.03 mmol/L and the “Calcemic Activity (%)” value ([1]; potency relative to 1α,25(OH)2 D3, rats, p.o. 7 days) was 100%. The “serum calcium levels at doses that induce NGF” value ([2]; background) was “increase serum calcium levels at doses that induce NGF” and the “calcemic effect at efficacious doses” value ([2]; based upon previous data) was “calcemic”.
